Laboratory results: patent US8901118B2, “Compounds and methods for kinase modulation, and indications therefor” (Plexxikon Inc., priority 2010, dated 2014)

Tests used:
[1] = target: Fms kinase (Homo sapiens, UniProt P07333); test: Fms kinase biochemical activity assay (AlphaScreen, biotin-(E4Y)10 phosphorylation); details: 100 μM ATP; read-out: Biochemical Inhibition IC50 Fms
Description: In one assay the biochemical activity IC50 values are determined with respect to inhibition of Fms kinase activity, where inhibition of phosphorylation of a peptide substrate is measured as a function of compound concentration. Compounds to be tested, dissolved in DMSO (1 μL), are added to a white 384-well plate (Costar #3705). Working stocks of Fms kinase (Invitrogen #PV3249), biotin-(E4Y)10 substrate (Upstate Biotech, Cat#12-440), and ATP (Sigma, Cat#A-3377) are prepared in 25 mM Hepes pH 7.5, 0.5 mM MgCl2, 2 mM MnCl2, 2 mM DTT, 0.01% BSA, and 0.01% Tween-20. All components are added to the 384-well plate for a final concentration of 1 ng/well Fms, 30 nM biotin-(E4Y)10 (Upstate Biotechnology) and 100 μM ATP in a volume of 20 μL. Each sample is at 5% DMSO. The plate is then incubated for 20 minutes at 30° C. Just before use, working stocks of donor and acceptor beads from the AlphaScreen PY20 Detection Kit (PerkinElmer, Cat#676601M) are prepared in 25 mM Hepes pH 7.5, pH 7.4, 100 mM EDTA, 0.01% BSA. To stop the reaction, the plate is uncovered in the dark and 5 μL of Donor Beads solution (Streptavidin beads) is added to each well. The plate is incubated at room temperature for 20 minutes. Five microliters of Acceptor Beads solution (PY20 coated beads) are then added to each well. The final concentration of each bead is 10 μg/mL. The plates are incubated at room temperature for 60 minutes. Fluorescence signal is recorded on the Envision reader. Phosphorylated substrate results in binding of the PY20 antibody and association of the donor and acceptor beads such that signal correlates with kinase activity. The signal vs. compound concentration is used to determine the IC50.

[2] = target: c-Kit kinase (Homo sapiens, UniProt P10721); test: c-Kit kinase biochemical activity assay (AlphaScreen, biotin-(E4Y)10 phosphorylation); details: 100 μM ATP; read-out: Biochemical Inhibition IC50 Kit
Description: Assays for biochemical and cell based activity are known in the art, for example, U.S. Patent Application Publication Number 2009/0076046, the disclosure of which is hereby incorporated by reference as it relates to such assays. For example, in one assay the biochemical activity IC50 values are determined with respect to inhibition of c-Kit kinase activity, where inhibition of phosphorylation of a peptide substrate is measured as a function of compound concentration. Compounds to be tested are dissolved in DMSO to a concentration of 20 mM. These are diluted 30 μL into 120 μL of DMSO (4 mM) and 1 μL is added to an assay plate. These are then serially diluted […] (50 μL to 100 μL DMSO) for a total of 8 points. Plates are prepared such that each kinase reaction is 20 μL in 1× kinase buffer (25 mM HEPES, pH 7.5, 2 mM MgCl2, 2 mM MnCl2, 0.01% Tween-20, 1 mM DTT, 0.01% BSA), 5% DMSO and 100 μM ATP. Substrate is 30 nM biotin-(E4Y) 10 (Millipore). C-kit kinase (obtained from Millipore (#14-559) or is prepared as described in U.S. Patent Application Publication Number 2009/0076046, the disclosure of which is hereby incorporated by reference as it relates to this assay) is at 0.75 ng per sample. After incubation of the kinase reaction for 1 hour at room temperature, 5 μL of donor beads (Streptavidin coated beads (Perkin Elmer Life Science) final concentration 10 μg/mL) in stop buffer (25 mM Hepes pH 7.5, 100 mM EDTA, 0.01% BSA) is added, the sample is mixed and incubated for 20 minutes at room temperature before adding 5 μL of acceptor beads (PY20 coated beads (Perkin Elmer Life Science) final concentration 10 μg/mL) in stop buffer. The samples are incubated for 60 minutes at room temperature and the signal per well is read on Envision reader. Phosphorylated substrate results in binding of the PY20 antibody and association of the donor and acceptor beads such that signal correlates with kinase activity. The signal vs. compound concentration is used to determine the IC50.

[3] = target: CYP2C19 (Homo sapiens, UniProt P33261); test: CYP2C19 inhibition (fluorescent substrate CEC); type: in vitro ADME; details: read-out: Cyp IC50 2C19
Description: (§1) CYP (Cytochrome P450) enzymes are the major drug metabolizing enzymes present in the liver. The inhibition of CYP enzyme activity (IC50) for each of CYP1A2, CYP2C19, CYP2C9, CYP2D6, CYP3A4(BFC) and CYP3A4(BQ) is determined for compounds, where inhibition of metabolism of a known substrate leads to a decrease in the fluorescence of the metabolized product. The fluorescence of the product is monitored as a function of compound concentration. Compounds are dissolved in DMSO to a concentration of 100 mM. These are diluted 1 μL into 82 μL of acetonitrile. An 11 μL aliquot of this solution is then added to 204 μL of cofactor mix (1.3% NADPH Regeneration system Solution A, 1.04% NADPH Regeneration system Solution B from BD Biosciences, 5% acetonitrile and 0.05% DMSO). These are then serially diluted 1:1 (160 μL to 160 μL co-factor mix) for a total of 10 points. A 10 μL aliquot of this final mixture is dispensed into 384 well assay plates and incubated for 10 minutes at 37° C. […] Assay plates are incubated at 37° C. (CYP1A2-15 min; CYP2C9-45 min; CYP2C19, 2D6 and 3A4-30 min) and read in a Tecan Safire 2 plate reader (CYP1A2, 2C19 and 3A4 409 ex/460 em; CYP2C9 and 2D6 409 ex/530 em). The signal versus compound concentration is used to determine the IC50. The enzymes and substrates for this assay are obtained from BD Biosciences.

[4] = target: CYP2C9 (Homo sapiens, UniProt P11712); test: CYP2C9 inhibition (fluorescent substrate MFC); type: in vitro ADME; details: read-out: Cyp IC50 2C9
Description: as §1

c-Kit kinase, sequence (P10721 26-976): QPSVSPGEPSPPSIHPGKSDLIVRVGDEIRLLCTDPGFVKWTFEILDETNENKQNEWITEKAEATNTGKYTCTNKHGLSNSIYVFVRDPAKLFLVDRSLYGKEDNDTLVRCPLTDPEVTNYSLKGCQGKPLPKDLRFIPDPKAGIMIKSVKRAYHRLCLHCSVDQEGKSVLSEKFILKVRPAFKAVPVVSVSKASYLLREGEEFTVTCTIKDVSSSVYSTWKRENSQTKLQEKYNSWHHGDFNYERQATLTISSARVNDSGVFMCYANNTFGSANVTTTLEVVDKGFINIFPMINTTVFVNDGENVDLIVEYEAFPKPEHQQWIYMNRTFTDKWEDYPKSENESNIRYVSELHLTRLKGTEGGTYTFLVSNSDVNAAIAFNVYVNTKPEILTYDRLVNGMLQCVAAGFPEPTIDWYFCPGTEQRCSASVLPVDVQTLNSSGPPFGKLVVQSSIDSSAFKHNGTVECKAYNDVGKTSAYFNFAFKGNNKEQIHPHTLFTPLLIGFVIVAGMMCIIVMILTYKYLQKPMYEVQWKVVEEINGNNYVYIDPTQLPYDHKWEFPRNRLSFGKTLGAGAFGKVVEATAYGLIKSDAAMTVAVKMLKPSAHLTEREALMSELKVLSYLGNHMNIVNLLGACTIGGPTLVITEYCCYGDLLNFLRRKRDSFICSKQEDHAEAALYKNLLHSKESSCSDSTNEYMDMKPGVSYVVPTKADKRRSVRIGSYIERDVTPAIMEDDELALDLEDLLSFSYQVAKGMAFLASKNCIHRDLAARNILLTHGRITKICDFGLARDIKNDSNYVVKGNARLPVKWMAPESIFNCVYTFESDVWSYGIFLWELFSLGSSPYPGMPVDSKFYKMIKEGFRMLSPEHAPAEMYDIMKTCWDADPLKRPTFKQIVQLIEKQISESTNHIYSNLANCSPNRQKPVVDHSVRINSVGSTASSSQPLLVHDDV
Fms kinase, sequence (P07333 20-972): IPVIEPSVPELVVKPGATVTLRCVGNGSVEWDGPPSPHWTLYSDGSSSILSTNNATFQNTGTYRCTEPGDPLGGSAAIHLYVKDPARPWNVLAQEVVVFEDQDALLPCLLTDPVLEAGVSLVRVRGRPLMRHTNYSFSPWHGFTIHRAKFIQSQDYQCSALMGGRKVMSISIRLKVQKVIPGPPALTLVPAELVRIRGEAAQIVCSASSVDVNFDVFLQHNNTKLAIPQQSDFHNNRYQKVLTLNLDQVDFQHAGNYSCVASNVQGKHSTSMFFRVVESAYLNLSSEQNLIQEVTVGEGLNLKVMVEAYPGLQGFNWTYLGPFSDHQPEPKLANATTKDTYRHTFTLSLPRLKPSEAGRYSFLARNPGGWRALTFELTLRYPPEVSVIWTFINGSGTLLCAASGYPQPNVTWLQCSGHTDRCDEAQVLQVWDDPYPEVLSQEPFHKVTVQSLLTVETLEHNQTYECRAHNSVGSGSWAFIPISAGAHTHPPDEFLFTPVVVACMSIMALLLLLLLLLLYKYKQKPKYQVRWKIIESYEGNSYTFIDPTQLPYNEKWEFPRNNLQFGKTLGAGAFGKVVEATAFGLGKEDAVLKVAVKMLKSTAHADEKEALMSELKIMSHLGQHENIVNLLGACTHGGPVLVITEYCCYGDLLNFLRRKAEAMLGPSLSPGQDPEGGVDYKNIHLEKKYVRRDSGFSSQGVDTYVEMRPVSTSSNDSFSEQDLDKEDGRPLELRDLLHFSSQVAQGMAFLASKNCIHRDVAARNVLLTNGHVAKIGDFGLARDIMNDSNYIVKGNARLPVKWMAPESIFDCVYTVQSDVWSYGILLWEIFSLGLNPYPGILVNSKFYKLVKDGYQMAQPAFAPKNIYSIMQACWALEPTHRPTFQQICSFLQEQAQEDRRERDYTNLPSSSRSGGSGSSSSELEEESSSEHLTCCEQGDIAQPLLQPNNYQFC
CYP2C19, sequence (P33261 whole entry): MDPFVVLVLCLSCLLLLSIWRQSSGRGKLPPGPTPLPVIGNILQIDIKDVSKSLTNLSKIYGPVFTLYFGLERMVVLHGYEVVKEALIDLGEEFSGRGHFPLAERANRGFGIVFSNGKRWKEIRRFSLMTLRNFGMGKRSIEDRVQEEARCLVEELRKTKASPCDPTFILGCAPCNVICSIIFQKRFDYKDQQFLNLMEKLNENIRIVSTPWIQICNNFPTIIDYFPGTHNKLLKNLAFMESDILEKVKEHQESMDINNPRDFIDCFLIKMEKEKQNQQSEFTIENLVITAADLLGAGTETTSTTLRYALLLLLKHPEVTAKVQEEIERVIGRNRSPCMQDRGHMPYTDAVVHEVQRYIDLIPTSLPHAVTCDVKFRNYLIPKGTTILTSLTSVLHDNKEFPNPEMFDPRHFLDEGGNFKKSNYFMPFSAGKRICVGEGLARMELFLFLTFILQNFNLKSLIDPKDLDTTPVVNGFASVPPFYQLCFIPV
CYP2C9, sequence (P11712 whole entry): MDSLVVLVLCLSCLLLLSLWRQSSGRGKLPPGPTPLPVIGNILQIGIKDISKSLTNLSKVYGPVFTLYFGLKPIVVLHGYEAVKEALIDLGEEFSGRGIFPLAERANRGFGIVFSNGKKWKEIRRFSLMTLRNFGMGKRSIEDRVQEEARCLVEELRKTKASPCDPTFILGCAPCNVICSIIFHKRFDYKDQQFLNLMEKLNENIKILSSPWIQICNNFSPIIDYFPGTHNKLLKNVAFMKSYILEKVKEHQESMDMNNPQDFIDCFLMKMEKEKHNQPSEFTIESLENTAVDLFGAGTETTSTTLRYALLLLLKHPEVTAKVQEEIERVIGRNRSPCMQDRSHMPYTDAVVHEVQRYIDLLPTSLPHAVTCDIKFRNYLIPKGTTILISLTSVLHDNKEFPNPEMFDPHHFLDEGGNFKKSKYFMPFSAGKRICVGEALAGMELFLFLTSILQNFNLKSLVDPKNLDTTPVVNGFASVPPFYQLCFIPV

| IC50 [1] | IC50 [2] | IC50 [3] | IC50 [4] | SMILES |
| --- | --- | --- | --- | --- |
| < 0.01 µM | < 0.1 µM | > 10 µM | 5 to 10 µM | CCc1ccc(Nc2ccc(C(=O)c3c[nH]c4ncnc(NC(C)C)c34)c(F)n2)cn1 [Compound P-4117, [6-[(6-ethyl-3-pyridyl)amino]-2-fluoro-3-pyridyl]-[4-(isopropylamino)-7H-pyrrolo[2,3-d]pyrimidin-5-yl]methanone] |
| < 1 µM | < 1 µM | > 10 µM | > 10 µM | COc1cncc(Nc2ccc(C(=O)c3c[nH]c4ncnc(NCC(F)(F)F)c34)c(F)n2)c1 [Compound P-4103, [2-fluoro-6-[(5-methoxy-3-pyridyl)amino]-3-pyridyl]-[4-(2,2,2-trifluoroethylamino)-7H-pyrrolo[2,3-d]pyrimidin-5-yl]methanone] |
| < 0.01 µM | < 0.1 µM | > 10 µM | > 10 µM | CCc1ccc(Nc2ccc(C(=O)c3c[nH]c4ncnc(NCC(C)(C)O)c34)c(F)n2)cn1 [Compound P-4064, [6-[(6-ethyl-3-pyridyl)amino]-2-fluoro-3-pyridyl]-[4-[(2-hydroxy-2-methyl-propyl)amino]-7H-pyrrolo[2,3-d]pyrimidin-5-yl]methanone] |
| < 0.1 µM | < 1 µM | > 10 µM | > 10 µM | COc1ccc(Nc2ccc(C(=O)c3c[nH]c4ncnc(NC5CCCCC5)c34)c(F)n2)cn1 [Compound P-4082, [4-(cyclohexylamino)-7H-pyrrolo[2,3-d]pyrimidin-5-yl]-[2-fluoro-6-[(6-methoxy-3-pyridyl)amino]-3-pyridyl]methanone] |
| < 0.1 µM | < 0.1 µM | > 10 µM | > 10 µM | CCc1ccc(Nc2ccc(C(=O)c3c[nH]c4ncnc(NCC5CC5)c34)c(F)n2)cn1 [Compound P-4118, [4-(cyclopropylmethylamino)-7H-pyrrolo[2,3-d]pyrimidin-5-yl]-[6-[(6-ethyl-3-pyridyl)amino]-2-fluoro-3-pyridyl]methanone] |
| < 0.01 µM | < 0.1 µM | > 10 µM | > 10 µM | Cc1cnc2[nH]cc(Cc3cnc(Nc4ccc(F)cc4)nc3)c2c1 [Compound P-3010, (4-Fluoro-phenyl)-[5-(5-methyl-1H-pyrrolo[2,3-b]pyridin-3-ylmethyl)-pyrimidin-2-yl]-amine] |
| < 1 µM | < 1 µM | – | – | CCc1ccc(Nc2ccc(C(=O)c3c[nH]c4ncnc(Nc5ccc(C)nc5)c34)c(F)n2)cn1 [Compound P-4086, [6-[(6-ethyl-3-pyridyl)amino]-2-fluoro-3-pyridyl]-[4-[(6-methyl-3-pyridyl)amino]-7H-pyrrolo[2,3-d]pyrimidin-5-yl]methanone] |
| < 0.01 µM | < 1 µM | – | – | Clc1cnc2[nH]cc(Cc3cnc(Nc4ccccc4Cl)nc3)c2c1 [Compound P-3015, (2-Chloro-phenyl)-[5-(5-chloro-1H-pyrrolo[2,3-b]pyridin-3-ylmethyl)-pyrimidin-2-yl]-amine] |
| < 0.01 µM | < 0.1 µM | – | – | Fc1ccccc1Nc1ncc(Cc2c[nH]c3ncc(Cl)cc23)cn1 [Compound P-3014, [5-(5-Chloro-1H-pyrrolo[2,3-b]pyridin-3-ylmethyl)-pyrimidin-2-yl]-(2-fluoro-phenyl)-amine] |
| < 0.01 µM | < 1 µM | – | – | CNc1ncnc2[nH]cc(C(=O)c3ccc(Nc4ccc(OC)nc4)nc3OC)c12 [Compound P-4085, [2-methoxy-6-[(6-methoxy-3-pyridyl)amino]-3-pyridyl]-[4-(methylamino)-7H-pyrrolo[2,3-d]pyrimidin-5-yl]methanone] |
| < 0.1 µM | – | < 5 µM | > 10 µM | CC1CCC(Nc2ncc(Cc3c[nH]c4ncc(Cl)cc34)cn2)CC1 (centres unmarked) [Compound P-3009, [5-(5-Chloro-1H-pyrrolo[2,3-b]pyridin-3-ylmethyl)-pyrimidin-2-yl]-(4-methyl-cyclohexyl)-amine] |
